Laboratory results reported in patent US6727237B2, “Inhibitors of bacterial NAD synthetase” (priority 1998, dated 2004).

How the values were obtained:
[1] = molecular target: T1, bacterial NAD synthetase enzyme (Bacillus subtilis, UniProt P08164); assay: biochemical; type: biochemical
T1 sequence (P08164 2-272 limits assumed): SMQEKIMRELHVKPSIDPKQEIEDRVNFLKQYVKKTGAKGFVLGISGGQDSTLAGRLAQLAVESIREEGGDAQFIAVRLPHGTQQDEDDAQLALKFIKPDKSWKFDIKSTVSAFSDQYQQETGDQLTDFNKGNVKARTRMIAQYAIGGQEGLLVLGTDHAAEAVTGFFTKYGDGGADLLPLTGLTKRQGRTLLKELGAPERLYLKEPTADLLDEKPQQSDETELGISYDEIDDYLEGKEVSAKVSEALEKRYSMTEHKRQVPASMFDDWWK

[2] = tested on: Staphylococcus epidermitis; assay: Bacterial growth inhibition screen in LB media (absorbance 595 nm), percent inhibition; settings: S. epidermitis
[3] = compound at 0.2 mM (Table 312A)

| Compound | % Inhibition ([1]; compound at 0.1 mM (Table 314)) [%] | % Inhibition ([2]; concentration screened 10 uM) [%] | % Inhibition [1, 3] [%] | % Inhibition ([2]; concentration screened 100 uM) [%] |
| --- | --- | --- | --- | --- |
| c1ccc(C(c2ccccc2)(c2ccccc2)c2ccc3[nH]c(CCC[n+]4cccc5ccccc54)cc3c2)cc1 [Compound 444] | 8.55 | 5.85 | – | – |
| c1ccc(C(c2ccccc2)(c2ccccc2)c2ccc3[nH]c(CCCC[n+]4cccc5ccccc54)cc3c2)cc1 [Compound 445] | – | 11.21 | 5.43 | – |
| c1ccc(C(c2ccccc2)(c2ccccc2)c2ccc3[nH]c(CCCCC[n+]4cccc5ccccc54)cc3c2)cc1 [Compound 446] | – | 3.69 | 13.78 | – |
| c1ccc(C(c2ccccc2)(c2ccccc2)c2ccc3[nH]c(CCCCCCCC[n+]4cccc5ccccc54)cc3c2)cc1 [Compound 449] | – | 7.73 | 8.67 | – |
| Fc1ccc2[nH]c(CCC[n+]3cccc4ccccc43)cc2c1 [Compound 450] | – | 7.45 | 7.90 | – |
| Fc1ccc2[nH]c(CCCC[n+]3cccc4ccccc43)cc2c1 [Compound 451] | 2.94 | 5.57 | – | – |
| Fc1ccc2[nH]c(CCCCC[n+]3cccc4ccccc43)cc2c1 [Compound 452] | – | 8.22 | 20.04 | – |
| Fc1ccc2[nH]c(CCCCCCCC[n+]3cccc4ccccc43)cc2c1 [Compound 455] | – | 6.55 | 2.69 | – |
| c1ccc(Oc2ccc3[nH]c(CCCC[n+]4cccc5ccccc54)cc3c2)cc1 [Compound 457] | – | 4.67 | 3.31 | – |
| c1ccc(Oc2ccc3[nH]c(CCCCC[n+]4cccc5ccccc54)cc3c2)cc1 [Compound 458] | – | 22.77 | 15.72 | – |
| O=C(c1ccccc1)c1ccc2[nH]c(CCC[n+]3cccc4ccccc43)cc2c1 [Compound 462] | – | 3.13 | 3.84 | – |
| O=C(c1ccccc1)c1ccc2[nH]c(CCCCC[n+]3cccc4ccccc43)cc2c1 [Compound 464] | – | 35.45 | 13.50 | – |
| O=C(c1ccccc1)c1ccc2[nH]c(CCCCCC[n+]3cccc4ccccc43)cc2c1 [Compound 465] | – | 8.08 | 7.92 | – |
| CC(=O)c1ccc2[nH]c(CCCCC[n+]3cccc4ccccc43)cc2c1 [Compound 476] | – | 11.14 | 17.49 | – |
| CC(=O)c1ccc2[nH]c(CCCCCC[n+]3cccc4ccccc43)cc2c1 [Compound 477] | – | 3.69 | 10.15 | – |
| COc1ccc2[nH]c(CCCCC[n+]3cccc4ccccc43)cc2c1 [Compound 482] | – | 4.39 | 17.07 | – |
| COC(=O)c1ccc2[nH]c(CCC[n+]3cccc4ccccc43)cc2c1 [Compound 486] | – | 22.28 | 4.97 | – |
| COC(=O)c1ccc2[nH]c(CCCCC[n+]3cccc4ccccc43)cc2c1 [Compound 488] | – | 2.72 | 17.65 | – |
| COC(=O)c1ccc2[nH]c(CCCCCCCC[n+]3cccc4ccccc43)cc2c1 [Compound 491] | – | 11.14 | 8.24 | – |
| O=C(O)c1ccc2[nH]c(CCC[n+]3cccc4ccccc43)cc2c1 [Compound 492] | – | 11.00 | 2.59 | – |

| Compound | % Inhibition ([1]; compound at 0.1 mM (Table 314)) [%] | % Inhibition ([2]; concentration screened 10 uM) [%] | % Inhibition [1, 3] [%] | % Inhibition ([2]; concentration screened 100 uM) [%] |
| --- | --- | --- | --- | --- |
| c1ccc2c[n+](CCCCCCc3cc4ccccc4[nH]3)ccc2c1 [Compound 501] | – | – | 4.98 | 7.93 |
| c1ccc2c[n+](CCCCCCCCc3cc4ccccc4[nH]3)ccc2c1 [Compound 503] | – | 7.82 | 37.04 | – |
| FC(F)(F)c1ccc2cc(CCCCC[n+]3ccc4ccccc4c3)[nH]c2c1 [Compound 506] | – | – | 21.74 | 98.64 |
| FC(F)(F)c1ccc2cc(CCCCCC[n+]3ccc4ccccc4c3)[nH]c2c1 [Compound 507] | – | – | 26.18 | 15.86 |
| Cc1ccc2[nH]c(CCCCCC[n+]3ccc4ccccc4c3)cc2c1 [Compound 513] | – | – | 23.66 | 17.86 |
| Fc1cc(F)c2[nH]c(CCCCCC[n+]3ccc4ccccc4c3)cc2c1 [Compound 519] | – | 11.35 | 16.27 | – |
| O=[N+]([O-])c1cc([N+](=O)[O-])c2[nH]c(CCCCC[n+]3ccc4ccccc4c3)cc2c1 [Compound 524] | – | – | 30.81 | 99.57 |
| CCCCc1ccc2[nH]c(CCCC[n+]3ccc4ccccc4c3)cc2c1 [Compound 529] | – | 10.15 | 15.50 | – |
| CCCCc1ccc2[nH]c(CCCCC[n+]3ccc4ccccc4c3)cc2c1 [Compound 530] | – | – | 20.52 | 27.36 |
| CCCCc1ccc2[nH]c(CCCCCC[n+]3ccc4ccccc4c3)cc2c1 [Compound 531] | – | 8.77 | 36.55 | – |
| CC(C)c1ccc2[nH]c(CCCCC[n+]3ccc4ccccc4c3)cc2c1 [Compound 536] | – | – | 32.49 | 96.64 |
| CC(C)c1ccc2[nH]c(CCCCCC[n+]3ccc4ccccc4c3)cc2c1 [Compound 537] | – | 5.43 | 10.69 | – |
| CC(C)c1ccc2[nH]c(CCCCCCC[n+]3ccc4ccccc4c3)cc2c1 [Compound 538] | – | 43.05 | 40.95 | – |
| CC(C)c1ccc2[nH]c(CCCCCCCC[n+]3ccc4ccccc4c3)cc2c1 [Compound 539] | – | 4.67 | 16.80 | – |
| c1ccc(-c2ccc3[nH]c(CCC[n+]4ccc5ccccc5c4)cc3c2)cc1 [Compound 540] | – | 1.60 | 20.20 | – |
| c1ccc(-c2ccc3[nH]c(CCCCC[n+]4ccc5ccccc5c4)cc3c2)cc1 [Compound 542] | – | – | 15.89 | 96.93 |
| c1ccc(-c2ccc3[nH]c(CCCCCC[n+]4ccc5ccccc5c4)cc3c2)cc1 [Compound 543] | – | 5.99 | 28.06 | – |
| c1ccc(-c2ccc3[nH]c(CCCCCCCC[n+]4ccc5ccccc5c4)cc3c2)cc1 [Compound 545] | – | 15.39 | 32.18 | – |
| O=[N+]([O-])c1ccc2[nH]c(CCCCCC[n+]3ccc4ccccc4c3)cc2c1 [Compound 549] | – | 3.13 | 14.08 | – |
| O=[N+]([O-])c1ccc2[nH]c(CCCCCCC[n+]3ccc4ccccc4c3)cc2c1 [Compound 550] | – | 4.40 | 28.18 | – |

| Compound | % Inhibition ([1]; compound at 0.1 mM (Table 314)) [%] | % Inhibition ([2]; concentration screened 10 uM) [%] | % Inhibition [1, 3] [%] | % Inhibition ([2]; concentration screened 100 uM) [%] |
| --- | --- | --- | --- | --- |
| c1ccc(C(c2ccccc2)(c2ccccc2)c2ccc3[nH]c(CCCCCCC[n+]4ccc5ccccc5c4)cc3c2)cc1 [Compound 556] | 18.19 | 60.18 | – | – |
| Fc1ccc2[nH]c(CCCCC[n+]3ccc4ccccc4c3)cc2c1 [Compound 560] | – | – | 46.91 | 98.43 |
| Fc1ccc2[nH]c(CCCCCCC[n+]3ccc4ccccc4c3)cc2c1 [Compound 562] | – | 9.44 | 46.44 | – |
| c1ccc(Oc2ccc3[nH]c(CCCCC[n+]4ccc5ccccc5c4)cc3c2)cc1 [Compound 566] | – | – | 29.72 | 98.21 |
| c1ccc(Oc2ccc3[nH]c(CCCCCCC[n+]4ccc5ccccc5c4)cc3c2)cc1 [Compound 568] | – | 3.10 | 18.95 | – |
| O=C(c1ccccc1)c1ccc2[nH]c(CCCCC[n+]3ccc4ccccc4c3)cc2c1 [Compound 572] | – | – | 31.02 | 96.57 |
| O=C(c1ccccc1)c1ccc2[nH]c(CCCCCC[n+]3ccc4ccccc4c3)cc2c1 [Compound 573] | – | 16.09 | 26.24 | – |
| FC(F)(F)c1ccc2[nH]c(CCCCC[n+]3ccc4ccccc4c3)cc2c1 [Compound 578] | – | – | 30.96 | 97.79 |
| FC(F)(F)c1ccc2[nH]c(CCCCCC[n+]3ccc4ccccc4c3)cc2c1 [Compound 579] | – | 5.57 | 12.57 | – |
| CC(=O)c1ccc2[nH]c(CCCCC[n+]3ccc4ccccc4c3)cc2c1 [Compound 584] | – | – | 68.79 | 96.07 |
| CC(=O)c1ccc2[nH]c(CCCCCC[n+]3ccc4ccccc4c3)cc2c1 [Compound 585] | – | 2.09 | 17.43 | – |
| CC(=O)c1ccc2[nH]c(CCCCCCCC[n+]3ccc4ccccc4c3)cc2c1 [Compound 587] | – | – | 56.47 | 100.00 |
| COc1ccc2[nH]c(CCCC[n+]3ccc4ccccc4c3)cc2c1 [Compound 589] | 24.98 | 29.35 | – | – |
| COc1ccc2[nH]c(CCCCC[n+]3ccc4ccccc4c3)cc2c1 [Compound 590] | – | – | 28.82 | 94.43 |
| COc1ccc2[nH]c(CCCCCCCC[n+]3ccc4ccccc4c3)cc2c1 [Compound 593] | – | – | 60.19 | 100.00 |
| COC(=O)c1ccc2[nH]c(CCCCC[n+]3ccc4ccccc4c3)cc2c1 [Compound 596] | – | – | 56.49 | 96.36 |
| COC(=O)c1ccc2[nH]c(CCCCCCC[n+]3ccc4ccccc4c3)cc2c1 [Compound 598] | – | 8.86 | 43.33 | – |
| COC(=O)c1ccc2[nH]c(CCCCCCCC[n+]3ccc4ccccc4c3)cc2c1 [Compound 599] | – | – | 19.31 | 44.14 |
| O=C(O)c1ccc2[nH]c(CCCCCC[n+]3ccc4ccccc4c3)cc2c1 [Compound 603] | – | 1.60 | 51.72 | – |
